In ChEMBL document CHEMBL6083233, “Modified (2'-deoxy)adenosines activate autophagy primarily through AMPK/ULK1-dependent pathway” (2024):
Calls of active or inactive are those of the source. No cut-off for these calls is given here.

Key:
[1] = Activation of autophagy in human SH-SY5Y cells expressing GFP-LC3-RFP assessed as green-to-red signal ratio at 2.5 mkM relative to control; assay type: functional; details: at 2.5 µM
[2] = Activation of autophagy in human SH-SY5Y cells expressing GFP-LC3-RFP assessed as green-to-red signal ratio at 250 mkM relative to control; assay type: functional; details: at 250 µM
[3] = Activation of autophagy in human SH-SY5Y cells expressing GFP-LC3-RFP assessed as green-to-red signal ratio at 25 mkM relative to control; assay type: functional; details: at 25 µM
SH-SY5Y [4] = experiment: Activation of autophagy in human SH-SY5Y cells expressing GFP-LC3-RFP assessed as increase in LC3-II level at 250 mkM by Western blot analysis; assay type: functional, cell-based
SH-SY5Y [5] = experiment: Activation of autophagy in human SH-SY5Y cells expressing GFP-LC3-RFP assessed as increase in LC3-II level at 25 to 250 mkM by Western blot analysis; assay type: functional, cell-based; details: dose 25-250 mkM
SH-SY5Y [6] = experiment: Activation of autophagy in human SH-SY5Y cells expressing AMPK-/-/GFP-LC3-RFP assessed as increase in green-to-red signal ratio at 25 to 250 mkM; assay type: functional, cell-based; details: dose 25-250 mkM
SH-SY5Y [7] = experiment: Activation of autophagy in human SH-SY5Y cells expressing GFP-LC3-RFP assessed as increase in Beclin-1 level at 25 to 250 mkM by Western blot analysis; assay type: functional, cell-based; details: dose 25-250 mkM
SH-SY5Y [8] = experiment: Activation of autophagy in human SH-SY5Y cells expressing SIRT1-/-/GFP-LC3-RFP assessed as increase in green-to-red signal ratio at 25 to 250 mkM; assay type: functional, cell-based; details: dose 25-250 mkM
SH-SY5Y [9] = experiment: Activation of autophagy in human SH-SY5Y cells expressing GFP-LC3-RFP assessed as increase in ULK1 phosphorylation at S555 at 25 to 250 mkM by Western blot analysis; assay type: functional, cell-based; details: dose 25-250 mkM
SH-SY5Y [10] = experiment: Effect on TSC2 phosphorylation in human SH-SY5Y cells expressing GFP-LC3-RFP at 25 to 250 mkM by Western blot analysis; assay type: functional, cell-based; details: dose 25-250 mkM
SH-SY5Y [11] = experiment: Effect on AKT phosphorylation at T308 in human SH-SY5Y cells expressing GFP-LC3-RFP at 25 to 250 mkM by Western blot analysis; assay type: functional, cell-based; details: dose 25-250 mkM
SH-SY5Y [12] = experiment: Activation of autophagy in human SH-SY5Y cells expressing GFP-LC3-RFP assessed as increase in AMPK phosphorylation by Western blot analysis; assay type: functional, cell-based; details: dose 25-250 mkM
SH-SY5Y [13] = experiment: Activation of mitophagy in human SH-SY5Y cells expressing GFP-LC3-RFP assessed as increase in phospho-ubiquitin level at 25 to 250 mkM by Western blot analysis; assay type: functional, cell-based; details: dose 25-250 mkM
SH-SY5Y [14] = experiment: Activation of autophagy in human SH-SY5Y cells expressing GFP-LC3-RFP assessed as increase in AMPK phosphorylation at 25 to 250 mkM by Western blot analysis; assay type: functional, cell-based; details: dose 25-250 mkM
SH-SY5Y [15] = experiment: Downregulation of 4E-BP1 phosphorylation in human SH-SY5Y cells expressing GFP-LC3-RFP at 25 to 250 mkM by Western blot analysis; assay type: functional, cell-based; details: dose 25-250 mkM
SH-SY5Y [16] = experiment: Downregulation of ULK phosphorylation at S757 in human SH-SY5Y cells expressing GFP-LC3-RFP at 25 to 250 mkM by Western blot analysis; assay type: functional, cell-based; details: dose 25-250 mkM

| SMILES | Ratio [1] [%] | Ratio [2] [%] | Ratio [3] [%] | Activity (SH-SY5Y [4]) | Activity (SH-SY5Y [5]) | Activity (SH-SY5Y [6]) | Activity (SH-SY5Y [7]) | Activity (SH-SY5Y [8]) | Activity (SH-SY5Y [9]) | Activity (SH-SY5Y [10]) | Activity (SH-SY5Y [11]) | Activity (SH-SY5Y [12]) | Activity (SH-SY5Y [13]) | Activity (SH-SY5Y [14]) | Activity (SH-SY5Y [15]) | Activity (SH-SY5Y [16]) |
| --- | --- | --- | --- | --- | --- | --- | --- | --- | --- | --- | --- | --- | --- | --- | --- | --- |
| O=c1[nH]c2c(ncn3ccnc23)n1[C@@H]1O[C@H](CO)[C@@H](O)[C@H]1O | -1.32 | -0.79 | -1.76 |  |  |  |  |  |  |  |  |  |  |  |  |  |
| CNc1ncnc2c1ncn2[C@@H]1O[C@H](CO)[C@@H](O)[C@H]1O | -1.2 | 3.36 | -1.43 | Active | Not active; Exhibited Weakest Activity Among Tested Compounds |  |  |  |  |  |  |  |  |  |  |  |
| Nc1ncnc2c1[nH]c(=O)n2[C@@H]1O[C@H](CO)[C@@H](O)[C@H]1O | 1.31 | 5.71 | 3.62 |  | Active; Exhibited Moderate Activity | Active | Active | Active | Active | inactive | Active | Dose-dependent-effect | inactive |  |  |  |
| CCC(CC)COC(=O)[C@@H](C)N[P@](=O)(OC[C@H]1O[C@@H](n2cnc3c(NC)ncnc32)[C@H](O)[C@@H]1O)Oc1ccccc1 | -3.79 | 7.26 | 0.44 |  | Active; Exhibited Higher Activity Compared To Parent Compound | Active |  | Active | Active |  | inactive |  | inactive | Active | Active; Result Provides Indirect Evidence Of Mtor Inhibition | Active; Result Provides Indirect Evidence Of Mtor Inhibition |
| Nc1ncnc2c1nc(Br)n2[C@H]1C[C@H](O)[C@@H](CO)O1 | 1.78 | 0.2 | 3.16 |  |  |  |  |  |  |  |  |  |  |  |  |  |
| Nc1ncnc2c1[nH]c(=O)n2[C@H]1C[C@H](O)[C@@H](CO)O1 | 1.85 | 5.41 | 1.85 |  | Active; Exhibited Moderate Activity | Active | Active | Active | Active | inactive | Active | Dose-dependent-effect | inactive |  |  |  |
| Nc1ncnc2c1nc(Br)n2COCCO | 1.31 | -0.4 | 1.28 |  |  |  |  |  |  |  |  |  |  |  |  |  |
| Nc1nc2c([nH]c(=O)n2[C@H]2C[C@H](O)[C@@H](CO)O2)c(=O)[nH]1 | -0.68 | 1.94 | 1.51 |  |  |  |  |  |  |  |  |  |  |  |  |  |
| Nc1ncnc2c1[nH]c(=O)n2COCCO | -0.47 | 2.59 | -2.79 | Active | Not active; Exhibited Weakest Activity Among Tested Compounds |  |  |  |  |  |  |  |  |  |  |  |
